As a reminder, the ED50 is the dose at which the effect has come halfway, by size or by number of responders. As usually defined, the LD50 is the dose expected to kill half of the subjects tested.

This note sets out measurements from patent EP0002836A1, “Acylhydrocarbylaminoalcanecarboxylic acids, their preparation and their use, and pharmaceutical compositions containing them” (Byk Gulden Lomberg Chemische Fabrik GmbH, priority 1977, dated 1979).

SMILES strings stand for the structures. A value given as a limit tells only on which side of the number the result lay.

Data set [1] concerns Pankreassekretion narkotisierter Ratten. In words: Pancreatic secretion of anaesthetised rats after intraduodenal administration. It is filed as in vivo, Ratte. Conditions: for ED50: Rattus norvegicus, 0.5 h, Ratte, i.d., dose that raises pancreatic secretion (fluid volume, 30-min fraction) by maximally 50 %; for TQ [LD50/ED50]: LD50 (Maus, i.p.) / ED50 Pankreassekretion (Ratte, i.d.), for Lfd.Nr. 1 the cited p.o. LD50. An excerpt:
In Tabelle I werden Untersuchungen der Pankreassekretion von narkotisierten Ratten nach intraduodenaler Applikation (ED50) und die letale Wirkung an der Maus (LD50) nach intraperitonealer Applikation von Vertretern der erfindungsgemäßen Verbindungen sowie der therapeutische Quotient (^TQ = LD50/ED50) wiedergegeben.
(§1) Einfluß auf die Pankreas- und Gallesekretion der narkotisierten Ratte Versuchsdurchführung:
(§2) Männliche Sprague-Dawley-Ratten (250 - 300 ^g Körpergewicht) werden mit 1,2 g/kg Urethan i.m. narkotisiert. Dann wird die Bauchhöhle medial geöffnet, der Ductus choledochus kurz oberhalb seiner Mündung in das Duodenum sowie nahe der Leberpforte ligiert, beide Gangabschnitte werden leberwärts katheterisiert.
(§3) Da bei der Ratte alle Pankreaskanäle in den mittleren Abschnitt des Ductus choledochus munden,lassen sich auf diese Weise aus dem distalen (ligierten) Gangabschnitt das Pankreassekret und aus dem proximalen Teil des Ductus choledochus die Galle getrennt ableiten.
(§4) Die sezernierten Mengen an Pankreas- und Gallensaft werden in 30 min. Abständen während 2 Stunden vor bis 3 Stunden nach der intraduodenalen ([…]) Verabreichung der zu prüfenden Verbindungen (verabreichtes Flüssigkeitsvolumen 5 ml/kg) gemessen.
(§5) Die Körpertemperatur der Tiere wird mittels Heizkissen und Bestrahlung auf 36 - 38°C gehalten; die Temperaturkontrolle erfolgt rectal.
(§6) Auswertung: • Die Flüssigkeitsvolumina der 30-min.-Fraktionen nach der Substanzgabe werden jeweils auf die vor der Substanzapplikation ausgeschiedene Galle- bzw. Pankreassaftmenge (= 100 %, Mittelwert aus den beiden letzten Messungen) bezogen. Die maximale prozentuale Steigerung der Pankreas- bzw. Gallesekretion wird in Abhängigkeit von der Dosis dargestellt und daraus die ED50 durch Interpolation ermittelt.

Data set [2] concerns Maus. Briefly: Acute toxicity in mice, intraperitoneal. It counts as in vivo. Conditions: i.p., female NMRI mice, 14 days observation. An excerpt: (§7) Die Toxizitätsuntersuchungen werden an weiblichen NMRI-Mäusen (Körpergewicht 22 - 26 g) durchgeführt. Die Tiere (5 Tiere pro Dosis) erhalten Futter und Wasser ad libitum. Verschiedene Dosierungen der Substanzen werden intraperitoneal verabreicht. Die Beobachtungsdauer beträgt 14 Tage. Die DL50, d.h. die Dosis, bei der 50 % der Tiere sterben, wird aus der Dosiswirkungskurve ermittelt.

Data set [3] relates to Gallesekretion narkotisierter Ratten. In words: Bile secretion (choleresis) of anaesthetised rats after intraduodenal administration. Conditions: for ED50: Rattus norvegicus, 0.5 h, Ratte i.d., dose that raises bile secretion (fluid volume, 30-min fraction) by maximally 50 %; for TQ [LD50/ED50]: LD50 (Maus, i.p.) / ED50 Gallesekretion (Ratte i.d.), for Lfd.Nr. 1 the cited p.o. LD50. It is filed as in vivo, Ratte.
From the text: In Tabelle II werden Untersuchungen der Gallesekretion (Cholerese) von narkotisierten Ratten nach intraduodenaler Applikation (ED50) und die letale Wirkung an der Maus (LD50) nach intraperitonealer Applikation von Vertretern der erfindungsgemäßen Verbindungen sowie der therapeutische Quotient (TQ = LD50/ED50) wiedergegeben.
as §1, §2, §3, §4, §5, §6

Data set [4] is described as follows: Acute toxicity in mice, intraperitoneal. It counts as in vivo. Conditions: mouse, in vivo, ip; Maus, i.p.; female NMRI mice, 14 days observation; read-out: Toxizität LD50.
From the text: as §7

Data set [5] relates to CCl4-lebergeschädigte Ratten. Briefly: Antihepatotoxic effect: hexobarbital sleeping time of rats after CCl4 liver damage. It is filed as in vivo, Ratte. The note with it: for TQ [LD50/ED50]: LD50 (Maus i.p.) / ED50 antihepatotoxischer Effekt (Ratte, p.o.), for Lfd.Nr. 1 the cited p.o. LD50; for ED50: Rattus norvegicus, po, Ratte, p.o., dose that shortens hexobarbital narcosis of CCl4-liver-damaged rats by 50 %, sodium salts in aqueous solution, given 1 h before CCl4, read-out: Antihepatotoxischer Effekt ED50. An excerpt: In Tabelle III werden Untersuchungen der antihepatotoxischen Wirkung (ED50) erfindungsgemäßer Verbindungen nach oraler Applikation an wachen Ratten und die letale Wirkung nach intraperitonealer Applikation an der Maus (LD50) sowie der therapeutische Quotient (TQ = LD50/ED50) wiedergegeben.
Prüfung auf antihepatotoxische Wirkung
Einfluß auf die Hexobarbitalschlafdauer der Ratte nach CCl4-Leberschädi- gung
Versuchsdurchführung: • In Anlehnung an VOGEL et al. [Arzneim.Forsch. 25(1975)82] wird bei nüchternen weiblichen Sprague-Dawley-Ratten (190 *10 g Körpergewicht, 10 Tiere/Dosis pro Versuchsansatz) durch orale Verabreichung von Tetrachlorkohlenstoff ([…] CC14 in 2,5 ml/kg Olivenöl) ein Leberzellenschaden erzeugt, dessen Ausmaß an der Verlängerung der Hexobarbitalnatrium-Schlafdauer (50mg/ml/kg i.v.;Schwanzvene, Injektionsdauer 45 - 60 sec.) 47 Stunden nach der CC14-Gabe bestimmt wird. Die zu prüfenden Verbindungen werden eine Stunde vor der CC14-Gabe oral in einem Flüssigkeitsvolumen von 10 ml/kg verabreicht.
Auswertung: • Der antihepatotoxische Effekt der zu prüfenden Verbindungen (NatriumSalze in wäßriger Lösung) wird an der prozentualen Verkürzung der durch die CC14-Leberzellschädigung bedingten Schlafdauerverlängerung bei den behandelten Gruppen gegenüber der Schlafdauerverlängerung der CC14-Kontrollgruppe (= 100 %) gemessen. Die ED50 wurde durch Interpolation aus der Dosis-Wirkungskurve ermittelt.

Consider `CC(C)(C)CC(C)(C)N(CCCC(=O)O)C(=O)c1ccc(F)cc1` [Beispiel 16], for which the ED50 in data set [1] (intraduodenal) is around 10 mg/kg. Moreover, the “Toxizität LD50” value in data set [2] is 400 mg/kg.
The molecule `C#CC1(N(CCCC(=O)O)C(=O)c2ccc(Cl)cc2)CCCCC1` [Beispiel 5] returned an ED50 in data set [3] (intraduodenal) of 6 mg/kg.
With `C#CC1(N(CCCC(=O)O)C(C)=O)CCCCC1` [Lfd. Nr. 8, N-Acetyl-4-[(1-ethinyl-cyclohexyl-1)-amino]-buttersäure], in data set [3], the “TQ [LD50/ED50]” value is listed as 32 and it took a dose of 6 mg/kg to reach the 50% effect level (ED50). In addition, in data set [4], the LD50 at 336 h came to 190 mg/kg.
With `O=C(O)CCCN(C(=O)c1ccc(Cl)cc1)C12CC3CC(CC(C3)C1)C2` [Lfd. Nr. 6, N-p-Chlorbenzoyl-4-(1-adamantyl)-aminobuttersäure], the “TQ [LD50/ED50]” value in data set [3] is given as 220; in data set [5], 110; in data set [1] it was around 220. Moreover, the ED50 in data set [3] was 5 mg/kg; in data set [5] it was 10 mg/kg; in data set [1] it was around 5 mg/kg. The LD50 at 336 h in data set [4] came out at 1100 mg/kg.
On to `CC(C)(C)CC(C)(C)N(CCCC(=O)O)C(=O)c1ccc(Cl)cc1` [Lfd. Nr. 7, N-p-Chlorbenzoyl-4-[(1.1.3.3-tetramethyl-butyl)-amino]-butter-säure], for which the “TQ [LD50/ED50]” value in data set [3] is given as 27; in data set [5], < 3,6; in data set [1] (listed as 1), 31. The ED50 in data set [3] was 40 mg/kg; in data set [5] it was above 300 mg/kg; in data set [1], 35 mg/kg.
As to `C#CC(CC)(CC)N(CCCC(=O)O)C(=O)c1ccc(Cl)cc1` [Lfd. Nr. 4, N-p-Chlorbenzoyl-4-[(3-ethyl-1-pentin-3-yl)-amino]-buttersäure], the figures for the “TQ [LD50/ED50]” value in data set [3], in data set [5] and in data set [1] were 43, 7,8 and 156, respectively. Also, the 50% effective dose (ED50) came out at 18 mg/kg in data set [3], 100 mg/kg in data set [5] and 5 mg/kg in data set [1]. In addition, the LD50 at 336 h in data set [4] stood at 780 mg/kg.
Consider `C#CC(C)(C)N(CCCC(=O)O)C(=O)c1ccc(Cl)cc1` [Lfd. Nr. 3, N-p-Chlorbenzoyl-4-[(2-methyl-3-butin-2-yl)-amino]-buttersäure], for which, in data set [1], the “TQ [LD50/ED50]” value is listed as “»100” and the ED50 was found to be 10 mg/kg. The LD50 at 336 h in data set [4] is above 1000 mg/kg.
With `CC(C)(C)N(CCCC(=O)O)C(=O)c1ccc(Cl)cc1` [Lfd. Nr. 2, N-p-Chlorbenzoyl-4-(tert.-butylamino)-buttersäure], the “TQ [LD50/ED50]” value in data set [3] is reported as above 40; in data set [5], above 10. Also, the ED50 in data set [3] is 25 mg/kg; in data set [5], 100 mg/kg. Further, the LD50 at 336 h in data set [4] was above 1000 mg/kg.
Regarding `O=C(O)CCCN(C(=O)c1ccc(Cl)cc1)C1CCCCCCC1` [Lfd. Nr. 18, N-p-Chlorbenzoyl-4-cyclooctylamino-buttersäure], in data set [1], the “TQ [LD50/ED50]” value was found to be 233 and the ED50 stood at 1.5 mg/kg. The LD50 at 336 h in data set [4] stood at 350 mg/kg.
Take `O=C(O)CCCN(Cc1ccccc1)C(=O)c1ccc(Cl)cc1` [Lfd. Nr. 15, N-p-Chlorbenzoyl-4-benzylamino-buttersäure]: in data set [5], the “TQ [LD50/ED50]” value is reported as 18,8 and the ED50 turned out to be 8 mg/kg. Also, in data set [1], the “TQ [LD50/ED50]” value was 60 and it took a dose of 2.5 mg/kg to reach the 50% effect level (ED50). Further, the LD50 at 336 h in data set [4] came to 150 mg/kg.
Regarding `CCC(C)(C)N(CCCC(=O)O)C(=O)c1ccc(Cl)cc1Cl` [Lfd. Nr. 11, N-2,4-Dichlorbenzoyl-4-[(1.1-dimethyl-propyl)-amino]-butter-säure], in data set [1], the “TQ [LD50/ED50]” value is listed as 200 and the 50% effect level (ED50) was put at a dose of 1 mg/kg. In data set [4], the LD50 at 336 h came out at 200 mg/kg.
